Assay results as given in patent US20090148391A1, “[…] ACTIVE PREPARATIONS COMPRISING […] DERIVATIVES AND FURTHER SKIN AND/OR HAIR LIGHTENING AND/OR SENILE KERATOSIS REDUCING COMPOUNDS” (SYMRISE GmbH & Co. KG, priority 2006, published 2009).

Assays:
[1] = system: 3T3 firbrosarcoma cells; conditions: cited from earlier work
[2] = system: B16V mouse melanoma cells; conditions: cited from earlier work
[3] = system: fungal-tyrosinase; test: Tyrosinase-Assay: oxidation of L-DOPA to dopachrome with or without test substance, photometric detection at 475 nm; type: biochemical; conditions: weight ratio of the mixture; 50 u/ml fungal-tyrosinase, pH 6.8, 37° C., L-DOPA 0.1 mg/ml
Procedure: The principle of the assay is to oxidise L-DOPA to dopachrome with or without the test substance under physiological conditions in a controlled reaction. Dopachrome and dopaquinone is detected via photometric detection methods. Commercially available fungal-tyrosinase is used for testing the enzyme activity and the correlating inhibition of melanin production.
The enzymatic reaction was conducted with or without a potential inhibitor of the tyrosinase of constituents (a) and (b), such as styrylresorcinol of formula 3 (more than 99% purity) of constituent (a) alone, specific compounds of the constituent b) selected from the group consisting of (i) chelating agents, (ii) phenolic derivatives, plant extracts with an amount of phenolic derivatives and (iii) organic acid derivatives alone, as well as mixtures thereof.
The concentrations of the inhibitor or a mixture thereof range from 0.1 to 1000 μg/ml. The enzyme activity was adjusted to 50 u/ml fungal-tyrosinase in 66.7 mM phosphate buffer (pH=6.8). The reaction mixture was incubated for 10 minutes in a 96-well microtiter plate in a horizontal agitator at 37° C. Then L-DOPA (end concentration: 0.1 mg/ml). The enzymatic conversion to dopachrome is related to the inhibition activity of the single test substances or the mixture thereof, which is shown in a brown discolouration, which can be detected at 475 nm. […]

Row | SMILES | tyrosinase-inhibiting activity [1] | tyrosinase-inhibiting activity [2] | Ratio 4-(1-phenylthyl)-1,3-dihydroxybenzene CARN 85-27-8:(i) Chelating Agent showing synergistic enhanced lightening activity in the tyrosinase assay [3]
1 | CC(c1ccccc1)c1ccc(O)cc1O (stereo not drawn) [styrylresorcinol of the formula 3, 4-(1-phenylethyl)-1,3-dihydroxybenzene] | clearly demonstrated | clearly demonstrated | –
2 | O=c1cc(CO)occ1O [Kojic acid, 5-hydroxy-2-hydroxymethyl-4-pyranone] | – | – | 1.3
